Values quoted from earlier work in patent US20050147629A1, “Pharmaceutical formulation comprising non-peptide renin inhibitor and surfactant” (priority 2002, published 2005).

Settings: readily soluble = at least 1 g per 100 ml, poorly soluble = less than 1 g per 100 ml (b7)

solubility in water: very readily soluble in water
SMILES: COCCCOc1cc(C[C@@H](C[C@H](N)[C@@H](O)C[C@H](C(=O)NCC(C)(C)C(N)=O)C(C)C)C(C)C)ccc1OC [formula Ia]
